Experimental data taken from PubChem BioAssay (NCI).
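Here, GI50 denotes the concentration required for 50% inhibition of growth. At the TGI there is no net growth.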

What was measured:
Assay in all cases: inhibition of tumour cell growth, NCI panel, 384-well format
[1] = system: 786-0 renal
[2] = system: A498 renal
[3] = system: A549 NSCLC
[4] = system: ACHN renal
[5] = system: BT-549 breast
[6] = system: CAKI-1 renal
[7] = system: CCRF-CEM leukemia
[8] = system: COLO 205 colon
[9] = system: DU-145 prostate
[10] = system: EKVX NSCLC
[11] = system: HCC-2998 colon
[12] = system: HCT-116 colon
[13] = system: HCT-15 colon
[14] = system: HL-60(TB) leukemia
[15] = system: HOP-62 NSCLC
[16] = system: HOP-92 NSCLC
[17] = system: HS 578T breast
[18] = system: HT29 colon
[19] = system: IGROV1 ovarian
[20] = system: K-562 leukemia
[21] = system: KM12 colon
[22] = system: LOX IMVI melanoma
[23] = system: M14 melanoma
[24] = system: MALME-3M melanoma
[25] = system: MCF7 breast
[26] = system: MDA-MB-231 breast
[27] = system: MDA-MB-435 melanoma
[28] = system: MDA-MB-468 breast
[29] = system: MOLT-4 leukemia
[30] = system: NCI-H226 lung

Q: Which GI50 [1] does the source give for `Cn1ncc2cc(-c3cnc(N)c(Cl)c3N3CCC4(CCNC4=O)CC3)ccc21` here?
A: Its GI50 is 10.7 µM.

Q: What about the TGI [1] of the same compound?
A: Its TGI is 25.4 µM.

Q: What about the GI50 [2] of the same compound?
A: The GI50 was 10.2 µM.

Q: What about the TGI [2] of the same compound?
A: Its TGI is > 100 µM.

Q: And the GI50 [3]?
A: Its GI50 is 47.6 µM.

Q: And the TGI [3]?
A: The TGI was > 100 µM.

Q: And the GI50 [4]?
A: The GI50 was 14.1 µM.

Q: And the TGI [4]?
A: Its TGI is > 100 µM.

Q: What about the GI50 [5] of the same compound?
A: Its GI50 is 38.1 µM.

Q: What about the TGI [5] of the same compound?
A: Its TGI is > 100 µM.

Q: And the GI50 [6]?
A: Its GI50 is 20.6 µM.

Q: What about the TGI [6] of the same compound?
A: Its TGI is > 95.7 µM.

Q: And the GI50 [7]?
A: The GI50 was 14.3 µM.

Q: What about the TGI [7] of the same compound?
A: The TGI was 32.9 µM.

Q: And the GI50 [8]?
A: The GI50 was 48.3 µM.

Q: What about the TGI [8] of the same compound?
A: The TGI was > 100 µM.

Q: And the GI50 [9]?
A: Its GI50 is 33.9 µM.

Q: And the TGI [9]?
A: The TGI was > 100 µM.

Q: And the GI50 [10]?
A: The GI50 was 28.2 µM.

Q: And the TGI [10]?
A: The TGI was > 91.8 µM.

Q: What about the GI50 [11] of the same compound?
A: Its GI50 is 43.1 µM.

Q: What about the TGI [11] of the same compound?
A: Its TGI is > 100 µM.

Q: What about the GI50 [12] of the same compound?
A: The GI50 was 29.4 µM.

Q: And the TGI [12]?
A: Its TGI is > 100 µM.

Q: And the GI50 [13]?
A: The GI50 was 22.5 µM.

Q: And the TGI [13]?
A: The TGI was 83.4 µM.

Q: What about the GI50 [14] of the same compound?
A: Its GI50 is 13.4 µM.

Q: And the TGI [14]?
A: Its TGI is 26.2 µM.

Q: And the GI50 [15]?
A: Its GI50 is 29.2 µM.

Q: What about the TGI [15] of the same compound?
A: The TGI was > 90.6 µM.

Q: What about the GI50 [16] of the same compound?
A: The GI50 was 41.4 µM.

Q: And the TGI [16]?
A: Its TGI is > 87.8 µM.

Q: And the GI50 [17]?
A: The GI50 was 24.1 µM.

Q: What about the TGI [17] of the same compound?
A: The TGI was 46.9 µM.

Q: What about the GI50 [18] of the same compound?
A: The GI50 was 16.6 µM.

Q: And the TGI [18]?
A: The TGI was > 59.9 µM.

Q: And the GI50 [19]?
A: The GI50 was 19.6 µM.

Q: And the TGI [19]?
A: Its TGI is > 87 µM.

Q: And the GI50 [20]?
A: The GI50 was 36.1 µM.

Q: What about the TGI [20] of the same compound?
A: The TGI was > 100 µM.

Q: What about the GI50 [21] of the same compound?
A: Its GI50 is 32.4 µM.

Q: And the TGI [21]?
A: Its TGI is > 100 µM.

Q: And the GI50 [22]?
A: Its GI50 is 39.5 µM.

Q: What about the TGI [22] of the same compound?
A: Its TGI is > 100 µM.

Q: And the GI50 [23]?
A: Its GI50 is > 78.2 µM.

Q: What about the TGI [23] of the same compound?
A: The TGI was > 100 µM.

Q: What about the GI50 [24] of the same compound?
A: Its GI50 is 40.9 µM.

Q: And the TGI [24]?
A: Its TGI is > 85 µM.

Q: And the GI50 [25]?
A: The GI50 was 48.1 µM.

Q: What about the TGI [25] of the same compound?
A: Its TGI is > 100 µM.

Q: What about the GI50 [26] of the same compound?
A: Its GI50 is 32.8 µM.

Q: And the TGI [26]?
A: Its TGI is > 100 µM.

Q: What about the GI50 [27] of the same compound?
A: Its GI50 is > 87.5 µM.

Q: And the TGI [27]?
A: The TGI was > 100 µM.

Q: What about the GI50 [28] of the same compound?
A: Its GI50 is 9.27 µM.

Q: And the TGI [28]?
A: The TGI was 25.5 µM.

Q: What about the GI50 [29] of the same compound?
A: The GI50 was 10.8 µM.

Q: And the TGI [29]?
A: Its TGI is 23.8 µM.

Q: What about the GI50 [30] of the same compound?
A: The GI50 was 19.6 µM.

Q: And the TGI [30]?
A: Its TGI is 53.7 µM.
